# Experimental data published in article PMC8264259, “A Novel Ruthenium(II) Complex With Lapachol Induces G2/M Phase Arrest Through Aurora-B Kinase Down-Regulation and ROS-Mediated Apoptosis in Human Prostate Adenocarcinoma Cells” (Frontiers in Oncology, 2021).
# How the values were obtained:
# [1] = tested on: HepG2 (human hepatocellular carcinoma); experiment: Alamar blue cytotoxicity assay, HepG2; type: cell-based; conditions: for IC50: HepG2, Alamar blue, 24-h incubation, mean ± S.E.M.
# Description: (§1) Human lung carcinoma (A549, ATCC® CCL-185™), human hepatocellular carcinoma (HepG2, ATCC® HB-8065™), and human breast adenocarcinoma (MDA-MB-231, ATCC® HTB-26™) were obtained from American Type Cell Collection (ATCC). Human melanoma (A-375, BCRJ-0278), Human colorectal adenocarcinoma (Caco-2, BCRJ 0059), human prostate adenocarcinoma (DU-145, BCRJ-0078, and PC-3, BCRJ-0269), human mouth fibroblast (FGH, BCRJ-0089), and human prostate epithelial cells (PNT-2, BCRJ-0366) were obtained from Rio de Janeiro Cells Bank (BCRJ). The cells A549, A-375, Caco-2, DU-145, HepG2, MDA-MB-231, and FGH were cultured in Dulbecco’s Modified Eagle’s Medium (DMEM, Gibco-Invitrogen®), PC-3 and PNT-2 cells were grown in Roswell Park Memorial Institute Medium (RPMI-1640, Gibco-Invitrogen®). Both mediums were supplemented according to the needs of each lineage, as recommended by its cell banks with 2 mM L-glutamine (Gibco-Invitrogen®), 10% or 20% fetal bovine serum (Gibco-Invitrogen®), 1% antibiotic-antimycotic solution (5 mg/ml penicillin, 5 mg/ml streptomycin, and 10 mg/ml neomycin, Gibco-Invitrogen®), and 3.7 g/L of NaHCO3 (Sigma-Aldrich). All cell lines were cultured in flasks at 37°C in 5% CO2 and 96% of relative humidity according to the procedures proposed by ([31]), and a mycoplasma stain kit (Sigma-Aldrich) was used to confirm the use of cells devoid of contamination. The assays were conducted between the third and the seventh-cell passage with sub-cultures every 3 to 4 days to maintain exponential growth. The cell viability was checked using the trypan blue dye exclusion assay for all experiments where over 95% of the cells were viable at the beginning of the tests.
# (§2) The in vitro antiproliferative activity was quantified using the Alamar blue® assay, according to the method reported by ([32]). Cells were seeded in 96-well plates for all experiments (1.5 × 10^4 cells/well). After 24 h, the complexes were dissolved in DMSO and added to each well and incubated for 24 h. Dilutions of the complexes were prepared to obtain concentrations ranging from 0.3 to 100 μM. […] DMSO (0.1% v/v) was used as the vehicle control. Following 24 h of incubation, 50 μl of Alamar blue® (resazurin at 0.01% w/v, Sigma-Aldrich) was added to each well, and the plates were incubated, at 37°C, in the dark. Fluorescence reading was performed in a Synergy H1 Fluorescence Spectrophotometer (BioTek®), using excitation and emission filters at wavelengths of 560 and 590 nm, respectively. The fluorescence intensity was measured in arbitrary fluorescence units (AFU) and the AFU of untreated cells (CTL) was considered 100%. The cytotoxic effects of the compounds were estimated in terms of cell proliferation inhibition (%) and expressed as half-maximal inhibitory concentration (IC50). The cell proliferation inhibition percentage of cells exposed to treatments was calculated following: % Inhibition = 100 − (AFU of treated well/AFU of control well) × 100). The IC50 values were calculated from the cell proliferation inhibition percentage by nonlinear regression method using CompusSyn® Software.
# DU-145 cells = experiment: Clonogenic assay; type: cell-based, human; conditions: 24 h treatment, colonies after 7 days
# Experimental: The clonogenic assay was performed in accordance with the guidelines of ([34]). […] DMSO (0.1% v/v) was used as the vehicle control. After 24 h, the cells were washed with PBS (Gibco-Invitrogen®) and harvested by trypsinization. Cells were counted using a Neubauer chamber and replated then on cell culture dishes of 21.5 cm^2 in a density of 200 cells per culture dish for each treatment in triplicate. After 7 days, cells were fixed in ice-cold methanol: acetic acid: distilled water (1:1:8), air-dried, and stained with crystal violet (0.5% w/v, Sigma-Aldrich) for 20 min. Colonies with at least 50 cells were counted. Plating efficiency (PE) of DU-145 cells was calculated by the ratio of the number of colonies observed after 7 days of incubation to the number of cells seeded (two hundred). The average of colonies in control was considered as 100%, and the number of colonies that arise after treatment of cells is called the surviving fraction (SF), obtained by:
# SF = Numberofcoloniescountedineachtreatment/Numberofcoloniescountedincontrol x PE × 100
# [2] = tested on: MDA-MB-231 (human breast adenocarcinoma); experiment: Alamar blue cytotoxicity assay, MDA-MB-231; type: cell-based; conditions: for IC50: MDA-MB-231, Alamar blue, 24-h incubation, mean ± S.E.M.
# Description: as §1, §2
# [3] = Partition coefficient (n-octanol/water), shake-flask method; type: physicochemical; conditions: 24 h, 37°C, triplicate
# Experimental: The octanol-water partition coefficients (log P) were quantified using the shake-flask method ([30]). Each complex was tested in a mixture of equal volumes of water and n-octanol with continuous shaking for 24 h at 112g and 37°C. Then the samples were centrifuged for 5 min at 10g, and the organic and aqueous phases were separated. The concentration of complex in each phase was measured spectrophotometrically to determine values of […]. The experiments were carried out in triplicate.
# [4] = tested on: A-375 (human malignant melanoma); experiment: Alamar blue cytotoxicity assay, A-375; type: cell-based; conditions: for IC50: A-375, Alamar blue, 24-h incubation, mean ± S.E.M.
# Description: as §1, §2
# [5] = tested on: DU-145 (human prostate adenocarcinoma); experiment: Alamar blue cytotoxicity assay, DU-145; type: cell-based; conditions: for IC50: DU-145, Alamar blue, 24-h incubation, mean ± S.E.M.
# Description: as §1, §2
# [6] = tested on: FGH (human mouth fibroblast); experiment: Alamar blue cytotoxicity assay, FGH non-cancer cells; type: cell-based; conditions: 24-h incubation, mean ± S.E.M.
# Description: as §1, §2
# [7] = tested on: PC-3 (human prostate adenocarcinoma); experiment: Alamar blue cytotoxicity assay, PC-3; type: cell-based; conditions: for IC50: PC-3, Alamar blue, 24-h incubation, mean ± S.E.M.
# Description: as §1, §2
# [8] = SI = IC50[FGH]/IC50[MDA-MB-231]
# [9] = SI = IC50[PNT-2]/IC50[MDA-MB-231]
smiles,measurement,setting,value
"CC(C)=CCC1=C([O-])C(=O)c2ccccc2C1=O.F[P-](F)(F)(F)(F)F.[Ru+2].c1ccc(-c2ccccn2)nc1.c1ccc(P(CP(c2ccccc2)c2ccccc2)c2ccccc2)cc1 [complex (1), [Ru(Lap)(dppm)(bipy)]PF6]",IC50,[1],1700 ± 500 nM
same,Selectivity index (SI),[1]; SI = IC50[FGH]/IC50[HepG2],1.8
same,Selectivity index (SI),[1]; SI = IC50[PNT-2]/IC50[HepG2],3.5
same,survival fraction (SF),"DU-145 cells; DU-145, 0.125 μM",65.1%
same,survival fraction (SF),"DU-145 cells; DU-145, 0.25 μM",35.1%
same,survival fraction (SF),"DU-145 cells; DU-145, 0.5 μM",18.3%
same,survival fraction (SF),"DU-145 cells; DU-145, 1.0 μM",9.0%
same,survival fraction (SF),"DU-145 cells; DU-145, 1.5 μM",4.3%
same,IC50,[2],2100 ± 400 nM
same,Selectivity index (SI),[2]; [8],1.5
same,Selectivity index (SI),[2]; [9],2.8
same,log P(o/w),[3],0.617 ± 0.014
same,IC50,[4],2500 ± 600 nM
same,Selectivity index (SI),[4]; SI = IC50[FGH]/IC50[A-375],1.2
same,Selectivity index (SI),[4]; SI = IC50[PNT-2]/IC50[A-375],2.4
same,IC50,[5],900 ± 200 nM
same,Selectivity index (SI),[5]; SI = IC50[FGH]/IC50[DU-145],3.4
same,Selectivity index (SI),[5]; SI = IC50[PNT-2]/IC50[DU-145],6.5
same,IC50,[6],3100 ± 200 nM
same,IC50,[7],1300 ± 400 nM
same,Selectivity index (SI),[7]; SI = IC50[FGH]/IC50[PC-3],2.4
same,Selectivity index (SI),[7]; SI = IC50[PNT-2]/IC50[PC-3],4.5
"CC(C)=CCC1=C([O-])C(=O)c2ccccc2C1=O.F[P-](F)(F)(F)(F)F.[Ru+2].c1ccc(P(CP(c2ccccc2)c2ccccc2)c2ccccc2)cc1.c1cnc2c(c1)ccc1cccnc12 [complex (2), [Ru(Lap)(dppm)(phen)]PF6]",IC50,[1],1500 ± 200 nM
same,Selectivity index (SI),[1]; SI = IC50[FGH]/IC50[HepG2],1.7
same,Selectivity index (SI),[1]; SI = IC50[PNT-2]/IC50[HepG2],4.5
same,survival fraction (SF),"DU-145 cells; DU-145, 0.125 μM",58.0%
same,survival fraction (SF),"DU-145 cells; DU-145, 0.25 μM",17.7%
same,survival fraction (SF),"DU-145 cells; DU-145, 0.5 μM",4.3%
same,survival fraction (SF),"DU-145 cells; DU-145, 1.0 μM",0%
same,survival fraction (SF),"DU-145 cells; DU-145, 1.5 μM",0%
same,IC50,[2],2000 nM
same,Selectivity index (SI),[2]; [8],1.2
same,Selectivity index (SI),[2]; [9],3.4
same,log P(o/w),[3],0.839 ± 0.007
same,IC50,[4],900 ± 300 nM
same,Selectivity index (SI),[4]; SI = IC50[FGH]/IC50[A-375],2.7
same,Selectivity index (SI),[4]; SI = IC50[PNT-2]/IC50[A-375],7.5
same,IC50,[5],800 ± 100 nM
same,cell viability with ROS scavenger NAC,"[5]; DU-145, cotreatment with 5 mM NAC, 24 h, Alamar blue",prevented the reduction of cell viability
same,Selectivity index (SI),[5]; SI = IC50[FGH]/IC50[DU-145],3.1
same,Selectivity index (SI),[5]; SI = IC50[PNT-2]/IC50[DU-145],8.5
same,IC50,[6],2500 ± 300 nM
same,IC50,[7],1100 ± 300 nM
same,Selectivity index (SI),[7]; SI = IC50[FGH]/IC50[PC-3],2.2
same,Selectivity index (SI),[7]; SI = IC50[PNT-2]/IC50[PC-3],6.2
